Assay results as given in patent publication EP1981504B1, “THIADIAZOLE DERIVATIVES FOR THE TREATMENT OF NEURO DEGENERATIVE DISEASES” (NV reMYND, priority 2006, dated 2007).
In brackets after ≈: the same amount, converted by molar mass.

Tested on: M17-SYNwt cells
Assay: α-synuclein cytotoxicity assay (LDH leakage from paraquat-treated α-synuclein over-expressing neuroblastoma cells)
Format: cell-based, human
Conditions: paraquat 32 mM, 40 hours, LDH release; for EC50: Homo sapiens, Neuroblastoma cell; for %I: percent inhibition of synuclein cytotoxicity at most effective concentration of test compound, relative to untreated paraquat cells
Protocol: Subsequently, LDH activity was determined using Promega Cytotox 96 NonRadioactive cytotoxicity assay, (Cat. G1780) according the supplier's instructions.
This corresponds to the following equation: (LDHreleaseoftreatedparaquatcellsatnon-effectiveconcentrationoftestcmpd)−(LDHreleaseoftreatedparaquatcellsatmosteffectiveconcentrationoftestcmpd)/(LDHreleaseofuntreatedparaquatcells)−(LDHreleasecontrolcells)*100% [formula]
1,2,4-thiadazole compounds made according to the methods described herein were screened for activity using the α-synuclein cytotoxicity assay as described above. Dose responses were carried out on all compounds found to be active (10 point curves in duplicate).

Compound	EC50 (10 point curves in duplicate) [µg/mL]	%I [%]	EC50 (µg/mL) (10 point curves in duplicate)
Cc1ccccc1NC(=O)N1CCN(c2nc(Cc3ccc(F)cc3)ns2)CC1C (centres unmarked) [Compound 10, N-(2-methylphenyl)-4-[3-(4-fluorobenzyl)-1,2,4-thiadiazol-5-yl]-2-methylpiperazine-1-carboxamide]	0.6 (≈ 1.41 µM)	72	–
CCCCCc1ccc(C(=O)NCCN2CCN(c3nc(Cc4ccc(F)cc4)ns3)CC2)cc1 [Compound 94, 4-pentyl-N-{2-[4-[3-(4-fluorobenzyl)-1,2,4-thiadiazol-5-yl]piperazin-1-yl]ethyl}benzamide]	0.35 (≈ 0.706 µM)	90	–
CCC(C(=O)N1CCN(c2nc(Cc3ccc(F)cc3)ns2)CC1C)c1ccccc1 (centres unmarked) [Compound 8, 1-(2-phenylbutanoyl)-4-[3-(4-fluorobenzyl)-1,2,4-thiadiazol-5-yl]-2-methylpiperazine]	1.49 (≈ 3.4 µM)	71	–
CC(C)(C)c1ccc(S(=O)(=O)N2CCN(c3nc(Cc4ccc(Cl)cc4)ns3)CC2)cc1 [Compound 69, 1-[4-tert-butylphenylsulfonyl]-4-[3-(4-chlorobenzyl)-1,2,4-thiadiazol-5-yl]piperazine]	–	31	–
O=C(NCCN1CCN(c2nc(Cc3ccc(F)cc3)ns2)CC1)c1ccccc1 [Compound 104, N-{2-[4-[3-(4-fluorobenzyl)-1,2,4-thiadiazol-5-yl]piperazin-1-yl]ethyl}benzamide]	3.82 (≈ 8.98 µM)	65	–
Cc1ccc(Cc2nsc(N3CCN(C(=O)c4ccccc4)CC3)n2)cc1 [Compound 158, 1-benzoyl-4-[3-(4-methylbenzyl)-1,2,4-thiadiazol-5-yl]piperazine]	2.1 (≈ 5.55 µM)	57	–
N-(3-cyanophenyl)-4-[3-(4-fluorobenzyl)-1,2,4-thiadiazol-5-yl]-2-methylpiperazine-1-carboxamide [Compound 22]	–	59	0,88 µg/mL
CCc1ccc(C(=O)N2CCN(c3nc(Cc4ccc(C)cc4)ns3)CC2C)cc1 (centres unmarked) [Compound 147, 1-(4-ethylbenzoyl)-4-[3-(4-methylbenzyl)-1,2,4-thiadiazol-5-yl]-2-methylpiperazine]	0.84 (≈ 2 µM)	88	–
CCS(=O)(=O)N1CCN(c2nc(Cc3ccc(Cl)cc3)ns2)CC1 [Compound 84, 1-(ethylsulfonyl)-4-[3-(4-chlorobenzyl)-1,2,4-thiadiazol-5-yl]piperazine]	3.48 (≈ 8.99 µM)	53	–
Cc1ccc(Cc2nsc(N3CCN(C(=O)c4ccc(Cl)cc4)CC3)n2)cc1 [Compound 155, 1-(4-chlorobenzoyl)-4-[3-(4-methylbenzyl)-1,2,4-thiadiazol-5-yl]piperabine]	1.64 (≈ 3.97 µM)	76	–
Cc1ccc(Cc2nsc(N3CCN(S(=O)(=O)c4ccc(C)cc4)C(C)C3)n2)cc1 (centres unmarked) [Compound 50, 1-[4-methylphenylsulfonyl]-4-[3-(4-methylbenzyl)-1,2,4-thiadiazol-5-yl]-2-methylpiperazine]	–	105	–
CCOc1ccc(S(=O)(=O)N2CCN(c3nc(Cc4ccc(F)cc4)ns3)CC2)cc1 [Compound 196, 1-[4-ethoxyphenylsulfonyl]-4-[3-(4-fluoro-benzyl)-1,2,4-thiadiazol-5-yl]piperazine]	0.0081 (≈ 0.0175 µM)	42	–
Fc1ccc(Cc2nsc(N3CCN(Cc4ccc5c(c4)OCO5)CC3)n2)cc1 [Compound 114, 1-(1,3-benzodioxol-5-ylmethyl)-4-[3-(4-fluorobenzyl)-1,2,4-thiadiazol-5-yl]piperazine]	–	86	–
Cc1ccc(Cc2nsc(N3CCN(CCNC(=O)Cc4ccc(F)cc4)CC3)n2)cc1 [Compound 109, 2-(4-fluorophenyl)-N-{2-[4-[3-(4-methylbenzyl)-1,2,4-thiadiazol-5-yl]piperazin-1-yl]ethyl}acetamide]	3.52 (≈ 7.76 µM)	93	–
CC1CN(c2nc(Cc3ccc(F)cc3)ns2)CCN1C(=O)c1ccccc1Cl (centres unmarked) [Compound 166, 1-(2-chlorobenzoyl)-4-[3-(4-fluorobenzyl)-1,2,4-thiadiazol-5-yl]-2-methylpiperazine]	–	123	–
Cc1ccc(Cc2nsc(N3CCN(C/C=C/c4ccccc4)CC3)n2)cc1 [Compound 91, 1-[3-phenylprop-2-enyl]-4-[3-(4-methylbenzyl)-1,2,4-thiadiazol-5-yl]piperazine]	0.71 (≈ 1.82 µM)	90	–
CC1CN(c2nc(Cc3ccc(F)cc3)ns2)CCN1C(=O)c1cccc(C(F)(F)F)c1 (centres unmarked) [Compound 145, 1-(3-trifluoromethylbenzoyl)-4-[3-(4-fluorobenzyl)-1,2,4-thiadiazol-5-yl]-2-methylpiperazine]	0.62 (≈ 1.33 µM)	60	–
O=C(CCc1ccccc1)N1CCN(c2nc(Cc3ccc(F)cc3)ns2)CC1 [Compound 90, 1-(3-phenylpropanoyl)-4-[3-(4-fluorobenzyl)-1,2,4-thiadiazol-5-yl]piperazine]	1.41 (≈ 3.43 µM)	73	–
Cc1ccc(Cc2nsc(N3CCN(S(=O)(=O)c4ccc(F)cc4)C(C)C3)n2)cc1 (centres unmarked) [Compound 58, 1-[4-fluorophenylsulfonyl]-4-[3-(4-methylbenzyl)-1,2,4-thiadiazol-5-yl]-2-methylpiperazine]	0.061 (≈ 0.137 µM)	58	–
COc1ccc(S(=O)(=O)N2CCN(c3nc(Cc4ccc(Cl)cc4)ns3)CC2)cc1 [Compound 31, 1-[4-methoxyphenylsulfonyl]-4-[3-(4-chlorobenzyl)-1,2,4-thiadiazol-5-yl]piperazine]	0.000169 (≈ 0.000363 µM)	59	–
O=C(NCCN1CCN(c2nc(Cc3ccc(Cl)cc3)ns2)CC1)c1cccc(F)c1 [Compound 100, 3-fluoro-N-(2-[4-[3-(4-chlorobenzyl)-1,2,4-thiadiazof-5-yl]piperazin-1-yl]ethyl)benzamide]	1.79 (≈ 3.89 µM)	75	–
O=C(NCCN1CCN(c2nc(Cc3ccc(F)cc3)ns2)CC1)c1ccc(F)cc1 [Compound 102, 4-fluoro-N-{2-[4-[3-(4-fluorobenzyl)-1,2,4-thiadiazol-5-yl]piperazin-1-yl]ethyl}benzamide]	1.99 (≈ 4.49 µM)	80	–
COc1cccc(Cc2nsc(N3CCN(C(=O)c4ccccc4)C(C)C3)n2)c1 (centres unmarked) [Compound 173, 1-benzoyl-4-[3-(3-methoxybenzyl)-1,2,4-thiadiazol-5-yl]-2-methylpiperazine]	–	85	–
CC1CN(c2nc(Cc3ccc(F)cc3)ns2)CCN1C(=O)Nc1ccc(F)cc1F (centres unmarked) [Compound 23, N-(2,4-difluorophenyl)-4-[3-(4-fluorobenzyl)-1,2,4-thiadiazol-5-yl]-2-methylpiperazine-1-carboxamide]	0.94 (≈ 2.1 µM)	66	–
Cc1ccc(Cc2nsc(N3CCN(C(=O)c4ccc(C(C)(C)C)cc4)CC3)n2)cc1 [Compound 183, 1-(4-tert-butylbenzoyl)-4-[3-(4-methylbenzyl)-1,2,4-thiadiazol-5-yl]piperazine]	–	52	–
